Broadly, the minimal effective dose is the lowest level tested that produced the effect sought. A high value points to weaker potency.

Converted amounts (≈) assume the structure as drawn.

Experimental findings from US4044043A, “Derivatives of 9-oxo-13-trans-prostenoic acid esters” (American Cyanamid Company, priority 1975, dated 1977) are described below.

In one experiment the test system is diastolic blood pressure. Briefly: Prostaglandin-like hypotensive activity in anesthetized rats (minimal dose for about 10 mm. decrease in diastolic blood pressure). The class given is in vivo, Male Wistar strain rats. The note with it: Rattus norvegicus; intravenous; decrease of about 10 mm. in diastolic blood pressure. The procedure:
This procedure is a modification of the technique described by Pike et al., Prostaglandins, Nobel Symposium 2, Stockholm, June, 1966; p, 165.
Male Wistar strain rats (Royal Hart Farms) averaging approximately 250 grams in weight were fastened to rat boards in a supine position by means of canvas vests and limb ties. The femoral area was infiltrated subcutaneously with lidocaine and the iliac artery and vein exposed and cannulated. Arterial blood pressure (systolic/diastolic) was recorded using a Statham P23 Db pressure transducer-Offner dynograph system. To obtain a stable blood pressure, the animals were anesthetized before use with pentobarbital, 30 mg./kg. of body weight intravenously, and also were given hexamethonium bitartrate, 2 mg./kg. of body weight intravenously. The test compounds were prepared by ultrasonic dispersion in a saline-Tween 80 ® vehicle. A constant intravenous dose volume of 0.5 ml. was administered and test doses ranged from 0.1 to 10.0 mg./kg. of body weight. Increasing or decreasing doses were selected depending on the dose response obtained. In Table I below are set forth the minimal doses required to produce a decrease of about 10 mm. in diastolic blood pressure for typical compounds of the present invention.
Turning to `CCCCCCC/C=C/[C@H]1CCC(=O)[C@@H]1CCCCCCC(=O)OCC` (relative stereo) [ethyl 20-methyl-9-oxo-13-trans-prostenoate], the minimal effective dose worked out at 0.5 mg/kg.
Still for that read-out and setting: under `CC/C=C\CC/C=C/[C@H]1CCC(=O)[C@@H]1CCCCCCC(=O)OCC` (relative stereo) [ethyl 9-oxo-13-trans-17-cis-prostadienoate] stands 0.2 to 2 mg/kg; under `CC[S+]([O-])CCC/C=C/[C@@H]1CCC(=O)[C@H]1CCCCCCC(=O)O` (relative stereo) [9-oxo-18-oxythia-13-trans-prostenoic acid], 2 to 8 mg/kg.
Still for that read-out and setting: then `CCCCCC/C=C/[C@H]1CCCC(=O)[C@@H]1CCCCCCC(=O)OCC` (relative stereo) [ethyl 9-oxo-10a-homo-13-trans-prostenoate], with 2 mg/kg; and `CCCCCC/C=C/[C@H]1CCC(=O)[C@@H]1CCCCCCC(=O)OCC` (relative stereo) [ethyl 9-oxo-13-trans-prostenoate], with 0.5 mg/kg.

The test system of a further experiment is Mycobacterium smegmatis ATCC 606. Briefly: agar-dilution streak-plate antimicrobial assay. The class given is cell-based. The settings on record: Mycolicibacterium smegmatis, ATCC606, read-out: Minimal inhibitory conc. (6). The procedure:
The novel compounds of the present invention are also useful as antimicrobial agents. […] In this assay, the compounds to be tested are made up to contain 2.5 mg. of test compound per milliliter of solution. Observing sterile techniques, two-fold serial dilution are made of each test solution. One milliliter of each of the original solutions and of each of the serial dilutions is then added to 9 ml. of warm sterile nutrient agar capable of supporting growth of the bacterial test cultures. A second set of agar dilutions is prepared identical to the first except that the nutrient agar is designed to support the growth of the fungal test cultures. […] The test bacteria and yeast-like fungi are prepared for use by growing in broth overnight. The spores of the filamentous fungi are harvested from mature agar slant cultures and are suspended in sterile physiological saline solution. A loopful of each of the resulting live suspensions is then, still employing sterile techniques, streaked upon the surfaces of each of the agar plates and the resulting streaked plates are then incubated. After an appropriate period of time, each of the streaks on each of the plates is inspected visually and the extent, if any, of bacterial or fungal growth is noted. The minimal inhibitory concentration (expressed in micrograms per milliliter) is defined as the concentration of test compound causing complete inhibition of growth of any particular organism. In a representative operation, and merely by way of illustration, the minimal inhibitory concentration of typical compounds of the present invention against a variety of test organisms as determined in the above-described assay are set forth in Tables II and III below: […]
Consider `CCCCCC/C=C/[C@H]1CCC(O)[C@@H]1CCCCCCC(=O)OCC` (stereo partly drawn) [ethyl 9-hydroxy-13-trans-prostenoate, ethyl 9α- and 9β-hydroxy-13-trans-prostenoate], for which the MIC worked out at 25 µg/mL (≈ 70.9 µM).
On the same count and under the same terms, under `CCCCCC/C=C/[C@H]1CCC(=O)[C@@H]1CCCCC(=O)OCC` (relative stereo) [ethyl 9-oxo-6,7-dinor-13-trans-prostenoate] stands 250 µg/mL (≈ 775 µM).

The next experiment deals with gastric acid secretion. Briefly: Inhibition of Gastric Acid Secretion (Pylorous-Ligated Rat), Shay rat procedure. The settings on record: 100 mg./kg. intraduodenal, read-out: % Inhibition of Control Gastric Acid Secretion. The class given is in vivo, rats (male, CFE strain). The text has this: The novel compounds of the present invention are also effective inhibitors of gastric acid secretion and of ulcer development in experimental animals, and thus are potentially valuable as agents for the control of gastric acid secretion and of gastric erosion and as anti-ulcer agents. Gastric acid secretion inhibitory action is usually measured by the Shay rat procedure ^(1,2) with some modifications as follows. 6 1. Shay et al., Gastroenterology, 5, 43 (1945). 6 2. Shay et al., Gastroenterology, 26, 906 (1954).
The rats (male, CFE strain) were starved for 48 hours (water was given ad libitum) to permit evacuation of stomach contents. On the morning of the experiment, under ether anesthesia, the abdominal region was shaved and a midline incision (1-1 1/2 inch) was made with a scalpel. With the help of a closed curved hemostat the duodenum was picked up. Upon getting the duodenum into view fingers were used to pull the stomach through the opening, the stomach was then gently manipulated with fingers to rid stomach of air and residual matter which were pushed through the pylorus. Two 5-inch sutures were drawn under the pyloric-duodenal puncture. A ligature, at the juncture, was formed with one of the threads. The second ligature was also formed but not tightened.
The test compound or the vehicle, usually 1 ml./100 g. body weight, were injected into the duodenum as close as possible to the first ligature. After injection the second ligature was tightened below the injection site to minimize leakage. The stomach was placed back through the opening into the abdominal cavity, the area of incision was washed with saline and the incision was closed with autoclips. (Ocasionally instead of an intraduodenal injection, animals were dosed by the oral or subcutaneous route. In the latter case, dosing was done thirty to sixty minutes before the operation).
The abdominal cavity was exposed by cutting with scissors and the esophagus close to the stomach was clamped off with a hemostat, the stomach was removed by cutting above the hemostat (the esophagus was cut) and between the two sutures. Extraneous tissue was removed, the stomach washed with saline and blotted on gauze. A slit was carefully made in the stomach which was held over a funnel and the contents were collected in a centrifuge tube. The stomach was further cut along the outside edge and turned inside out. Two ml. of water were used to wash the stomach contents into the respective centrifuge tube. The combined stomach contents and wash were then centrifuged out for 10 minutes in the International Size 2 Centrifuge (setting at 30). The supernatant was collected, volume measured and recorded, 2 drops of phenolphthalein indicator (1% in 95% ethanol) were added and the solution was titrated with 0.02N NaOH (or with 0.04N NaOH when large volumes of stomach contents were encountered) to pH 8.4 (because of usual coloring of the stomach contents, phenolphthalein was only used to permit visual indication that the end point was near) and the amount of acid present was calculated.
Compounds inducing inhibition of gastric acid secretion of 20% or more were considered active. In a representative operation, and merely by way of illustration, the results obtained with this assay with typical compounds of the present invention are given in Table IIIA.
As to `CCC/C=C/[C@@H]1CCCC(=O)[C@H]1CCCCCCC(=O)O` (relative stereo) [9-oxo-18,19,20-trinor-10a-homo-13-trans-prostenoic acid], the inhibition in vivo at 100 mg/kg worked out at 39%.
Still for that read-out and setting: then `CCCC=CC1CCC(=O)C1CCCCCC(F)C(=O)OCC` (stereo not drawn) [ethyl 9-oxo-2-fluoro-18,19,20-trinor-13-trans-prostenoate], with 84%; and `CCC/C=C/[C@H]1CCCC(=O)[C@@H]1CCCCCCC(=O)OCC` (relative stereo) [ethyl 9-oxo-18,19,20-trinor-10a-homo-13-transprostenoate], with 37%.
The same measure, in the same setting: under `CCCCCC/C=C/[C@@H]1CCC(=O)[C@H]1CCCCSCC(=O)OCC` (relative stereo) [ethyl 9-oxo-3-thia-13-trans-prostenoate] stands 39%; under `CCCCCC/C=C/[C@@H]1CCC(=O)[C@H]1CCCCCCC(=O)OCCCC` (relative stereo) [butyl 9-oxo-13-trans-prostenoic acid], 46%.
On the same count and under the same terms, under `CCCCCCC/C=C/[C@H]1CCC(=O)[C@@H]1CCCCCCC(=O)OCC` (relative stereo) [ethyl 20-methyl-9-oxo-13-trans-prostenoate] stands 36%; under `CCCCCCC=CC1CC(c2ccccc2)C(=O)C1CCCCCCC(=O)OCC` (stereo not drawn) [Ethyl 9-oxo-10-phenyl-13-trans-prostenoate], 24%; under `CCCCCC/C=C/[C@@H]1CCC(=NNc2cc(Cl)ccc2Cl)[C@H]1CCCCCCC(=O)O` (relative stereo) [9-Oxo-13-trans-prostenoic acid 2,5-dichlorophenylhydrazone], 30%.
In the case of `CCC/C=C/[C@@H]1CCC(=O)[C@H]1CCCCOCC(=O)OCC` (relative stereo) [ethyl 9-oxo-3-oxa-18,19,20-trinor-13-trans-prostenoate], the inhibition in vivo at 100 mg/kg turned out to be 65%.
`CCCCCCC=CC1CC(SC)C(=O)C1CCCCCCC(=O)OCC` (stereo not drawn) [Ethyl 10-methylthio-9-oxo-13-trans-prostenoate]: the inhibition in vivo at 100 mg/kg turned out to be 35%.
Same read-out and setting: under `CCCCCC/C=C/[C@H]1CCCC(=O)[C@@H]1CCCCCCC(=O)OCC` (relative stereo) [ethyl 9-oxo-10a-homo-13-trans-prostenoate] stands 46%; under `CCCCCCC=CC1CC(F)C(=O)C1CCCCCCC(=O)OCC` (stereo not drawn) [Ethyl 10-fluoro-9-oxo-13-trans-prostenoate], 25%.
`CCOC(=O)CCCCCC[C@H]1C(=O)CC[C@@H]1/C=C/CCCS(=O)(=O)CC` (relative stereo) [ethyl 9-oxo-18-dioxythia-13-trans-prostenoate]: the inhibition in vivo at 100 mg/kg was 34%.
Same read-out and setting: then `CCCCCC/C=C/[C@H]1CCC(=O)[C@@H]1CCCCCCC(=O)OCC` (relative stereo) [ethyl 9-oxo-13-trans-prostenoate], with 28%.

Another experiment has as its system dl-PGE1-induced contraction of gerbil colon. Briefly: Inhibition of dl-PGE1-Induced Contraction of Gerbil Colon (prostaglandin antagonist action). The settings on record: Meriones unguiculatus, 1 min; sub-maximal challenge, 20 ng./ml. dl-PGE1; 50% inhibition of maximum response; read-out: ID50 vs. 20 ng. of PGE1/ml. Format: cell-based, gerbils (Meriones unguiculatus). How it is done: The compounds of this invention are also useful as antagonists of prostaglandin action and accordingly they are potentially useful as anti-inflammatory agents, and as agents for the treatment of periodontal diseases and diarrhea. Testing for prostaglandin antagonist action is carried out in the following manner. Sections of ascending colon, approximately 20 mm. long, from mature male gerbils (Meriones unguiculatus) weighing 70-80 g. were mounted in De Jalon's solution (154 mM NaCl; 5.95 mM NAHCO3; […], 5.64 mM KC and .27 mM CaCl2 in 20 ml. tissue baths) (L and K Glass Co., Lynnhurst, N.J.). The medium was continually gassed with a mixture of 95% 02 -5% CO2 and maintained at 37° C. The tissues were suspended via silk suture threads between a glass hook at the base and a model FT .03C force displacement transducer (Grass Instruments, Quincy, Massachusetts). Contractions were recorded on a Poly-Viso ® polygraph (Sanborn Co., Cambridge, Massachusetts). After mounting, tissues were allowed to stabilize 15-20 minutes during which time adjustments were made to establish and maintain a 0.5 g. resting tension on the muscle. Thereafter, test cycles of 3-5 minutes were begun and consisted of a 1 minute exposure to the potential antagonist, if called for, followed by a 1 minute exposure to the prostaglandin agonist, a 15-30 sec. washout and a recovery period of 2-2.5 minutes. […] During the washout period, the tissue was rinsed with a measured amount equalling 8 volumes of medium. Muscle relaxation was virtually complete by the end of the washout period. During preliminary tests it was noted that a final concentration of 200 ng./ml. of a racemic mixture of synthetic prostaglandin-E1 (dl-PGE1) produced maximal muscle contraction. Following stabilization, muscles were exposed 2 to 3 times to this concentration of dl-PGE1 until a consistent response was recorded. Once maximal responses were established, test cycles with potential antagonists were commenced and were followed alternately with prostaglandin-only test cycle. […] The contraction of the muscle induced by 200 ng./ml. dl-PGE1 following exposure to a given concentration of the potential antagonist was always compared to the response of the tissue to that level of dl PGE1 in the immediately preceding cycle. Using a series of potential antagonist concentrations, an approximate ID50 (concentration at which 50% inhibition was observed) was established. The compounds were also tested against a sub-maximal prostaglandin challenge (20 ng./ml. dl-PGE1) in which case activity is reported in terms of a 50% inhibition of maximum response.
As for `CC(C)/C=C/[C@H]1CCC(=O)[C@@H]1CCCCCCC(=O)O` (relative stereo) [15-methyl-9-oxo-17,18,19,20-tetranor-13-trans-prostenoic acid], the IC50 is 25 to 30 µg/mL (≈ 89.2 to 107 µM).
Same read-out and setting: under `CCC/C=C/[C@@H]1CCCC(=O)[C@H]1CCCCCCC(=O)O` (relative stereo) [9-oxo-18,19,20-trinor-10a-homo-13-trans-prostenoic acid] stands 1 µg/mL (≈ 3.4 µM).
The same measure, in the same setting: then `CCCCCCC=CC1CC(C#N)C(=O)C1CCCCCCC(=O)OCC` (stereo not drawn) [Ethyl 10-cyano-9-oxo-13-trans-prostenoate], with 10 to 25 µg/mL (≈ 26.6 to 66.6 µM).

Still in this experiment, the particulars now being: agonist alone, preliminary tests.
With `CCCCC[C@H](O)/C=C/[C@H]1[C@H](O)CC(=O)[C@@H]1CCCCCCC(=O)O` (relative stereo) [dl-PGE1, prostaglandin-E1, reference compound], the “final concentration that produced maximal muscle contraction” value was determined as 200 ng/mL.
